{"source": "patent US20190307762A1", "about": "“METHODS AND COMPOSITIONS FOR THE TREATMENT OF TRAUMA AND STRESSOR-RELATED DISORDERS” (priority 2016, published 2019)", "origin": "cited, not measured here", "key": {"[1]": {"conditions": "for Equivalent amount: dose equivalent to 20 mg hydrocortisone; for Hydrocortisone equivalent (1 mg of the glucocorticoid corresponds to the listed amount in mg of hydrocortisone): per 1 mg of the glucocorticoid"}, "cytochrome P-450 3A4": {"target": "cytochrome P-450 3A4 (Homo sapiens, UniProt P08684)", "sequence (P08684 whole entry)": "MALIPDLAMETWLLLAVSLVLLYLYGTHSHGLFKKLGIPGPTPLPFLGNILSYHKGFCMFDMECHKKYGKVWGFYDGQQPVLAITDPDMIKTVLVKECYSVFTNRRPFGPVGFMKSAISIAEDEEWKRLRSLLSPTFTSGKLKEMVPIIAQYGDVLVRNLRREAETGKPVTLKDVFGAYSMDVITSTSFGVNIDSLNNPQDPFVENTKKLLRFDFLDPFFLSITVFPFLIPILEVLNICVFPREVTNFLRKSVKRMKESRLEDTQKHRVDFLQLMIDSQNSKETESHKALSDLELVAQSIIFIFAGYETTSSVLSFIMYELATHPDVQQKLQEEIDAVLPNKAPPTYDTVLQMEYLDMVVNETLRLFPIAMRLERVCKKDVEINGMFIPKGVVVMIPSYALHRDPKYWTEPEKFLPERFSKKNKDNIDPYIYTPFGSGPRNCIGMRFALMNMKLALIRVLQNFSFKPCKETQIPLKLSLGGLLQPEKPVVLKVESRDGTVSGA"}, "[2]": {"system": "serotonin (5-HT) or noradrenaline reuptake"}, "[3]": {"system": "generalized anxiety disorders", "conditions": "versus placebo and alprazolam"}, "[4]": {"system": "histamine (H1.H2), serotonin (5-HT2), dopamine (D2.D1), adrenergic (al) receptors", "conditions": "in vitro; decreasing order H1.H2, 5-HT2, D2.D1, al"}, "neurological tissue": {"system": "neurological tissue", "conditions": "preclinical; linked to binding to sigma one receptors"}, "[5]": {"conditions": "in vivo"}, "cholinergic receptors": {"system": "cholinergic receptors", "conditions": "in vitro"}, "sigma 2 receptors": {"target": "sigma 2 receptors (Homo sapiens, UniProt Q5BJF2)", "sequence (Q5BJF2 whole entry)": "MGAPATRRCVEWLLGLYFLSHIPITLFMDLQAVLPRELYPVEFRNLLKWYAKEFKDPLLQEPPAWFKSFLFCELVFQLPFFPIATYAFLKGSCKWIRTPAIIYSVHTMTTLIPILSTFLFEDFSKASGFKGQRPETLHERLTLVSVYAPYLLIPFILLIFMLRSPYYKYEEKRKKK"}}}
{"smiles": "C[C@H]1C[C@H]2[C@@H]3CCC4=CC(=O)C=C[C@]4(C)[C@@]3(F)[C@@H](O)C[C@]2(C)[C@@]1(O)C(=O)CO", "note": "[Betarnethasone]", "values": [{"measurement": "Equivalent amount", "setting": "[1]", "result": 0.75, "unit": "mg"}, {"measurement": "Hydrocortisone equivalent (1 mg of the glucocorticoid corresponds to the listed amount in mg of hydrocortisone)", "setting": "[1]", "result": 26.66, "unit": "mg"}]}
{"smiles": "CC(=O)OCC(=O)[C@@]1(O)CC[C@H]2[C@@H]3CCC4=CC(=O)CC[C@]4(C)[C@H]3C(=O)C[C@@]21C", "note": "[Cortisone acetate]", "values": [{"measurement": "Equivalent amount", "setting": "[1]", "result": 25, "unit": "mg"}, {"measurement": "Hydrocortisone equivalent (1 mg of the glucocorticoid corresponds to the listed amount in mg of hydrocortisone)", "setting": "[1]", "result": 0.8, "unit": "mg"}]}
{"smiles": "C[C@]12CCC(=O)C=C1CC[C@@H]1[C@@H]2[C@@H](O)C[C@@]2(C)[C@H]1CC[C@]2(O)C(=O)CO", "note": "[Hydrocortisone]", "values": [{"measurement": "Equivalent amount", "setting": "[1]", "result": 20, "unit": "mg"}, {"measurement": "Hydrocortisone equivalent (1 mg of the glucocorticoid corresponds to the listed amount in mg of hydrocortisone)", "setting": "[1]", "result": 1, "unit": "mg"}]}
{"smiles": "C[C@@H]1C[C@H]2[C@@H]3C[C@H](F)C4=CC(=O)C=C[C@]4(C)[C@H]3[C@@H](O)C[C@]2(C)[C@@]1(O)C(=O)CO", "note": "[Pararnethasone]", "values": [{"measurement": "Equivalent amount", "setting": "[1]", "result": 2, "unit": "mg"}, {"measurement": "Hydrocortisone equivalent (1 mg of the glucocorticoid corresponds to the listed amount in mg of hydrocortisone)", "setting": "[1]", "result": 10, "unit": "mg"}]}
{"smiles": "C[C@]12C=CC(=O)C=C1CC[C@@H]1[C@@H]2[C@@H](O)C[C@@]2(C)[C@H]1CC[C@]2(O)C(=O)CO", "note": "[Prednisolone]", "values": [{"measurement": "Equivalent amount", "setting": "[1]", "result": 5, "unit": "mg"}, {"measurement": "Hydrocortisone equivalent (1 mg of the glucocorticoid corresponds to the listed amount in mg of hydrocortisone)", "setting": "[1]", "result": 4, "unit": "mg"}]}
{"smiles": "C[C@]12C=CC(=O)C=C1CC[C@H]1[C@@H]3C[C@@H](O)[C@](O)(C(=O)CO)[C@@]3(C)C[C@H](O)[C@@]12F", "note": "[Triamcinolone]", "values": [{"measurement": "Equivalent amount", "setting": "[1]", "result": 4, "unit": "mg"}, {"measurement": "Hydrocortisone equivalent (1 mg of the glucocorticoid corresponds to the listed amount in mg of hydrocortisone)", "setting": "[1]", "result": 5, "unit": "mg"}]}
{"smiles": "OCCN1CCN(CCCN2c3ccccc3C=Cc3ccccc32)CC1", "note": "[opipramol]", "values": [{"measurement": "CYP substrate", "setting": "cytochrome P-450 3A4", "result": "CYP3A substrate"}, {"measurement": "reuptake inhibiting properties", "setting": "[2]", "result": "without reuptake inhibiting properties"}, {"measurement": "anxiolytic efficacy", "setting": "[3]", "result": "superiority over placebo and similar efficacy to alprazolam"}, {"measurement": "receptor blockade", "setting": "[4]", "result": "blocks the following receptors in decreasing order"}, {"measurement": "protection against glutamate mediated toxicity", "setting": "neurological tissue", "result": "ability to protect neurological tissue against the effects of glutamate mediated toxicity"}, {"measurement": "sigma ligand strength", "setting": "sigma", "result": "strong sigma ligand"}, {"measurement": "risk of drug dependence", "setting": "[5]", "result": "no risk of drug dependence"}, {"measurement": "receptor blockade", "setting": "cholinergic receptors", "result": "very weakly"}, {"measurement": "signaling at sigma 2 receptors", "setting": "sigma 2 receptors", "result": "down regulate signaling at sigma 2 receptors"}, {"measurement": "levels of cGMP", "setting": "cGMP", "result": "induces increased levels of cGMP"}]}
